Measured values published in ChEMBL document CHEMBL5506025, “Discovery of LLC0424 as a Potent and Selective in Vivo NSD2 PROTAC Degrader” (J Med Chem, 2024).
Activity calls are given as the source filed them. No cut-off for these calls is given here.

Columns and labels:
[1] = target: T1, Protein cereblon/Histone-lysine N-methyltransferase NSD2 (Homo sapiens) (UniProt O96028+Q96SW2); assay: PROTAC activity at CRBN/NSD2 in human RPMI 8402 cells assessed as induction of NSD2 degradation at 2 uM pretreated with VL-285 for 2 hrs followed by compound addition and measured after 6 to 12 hrs by Western blot analysis; type: cell-based; settings: time 6-12 hrs
T1 sequence (O96028 whole entry, looked up): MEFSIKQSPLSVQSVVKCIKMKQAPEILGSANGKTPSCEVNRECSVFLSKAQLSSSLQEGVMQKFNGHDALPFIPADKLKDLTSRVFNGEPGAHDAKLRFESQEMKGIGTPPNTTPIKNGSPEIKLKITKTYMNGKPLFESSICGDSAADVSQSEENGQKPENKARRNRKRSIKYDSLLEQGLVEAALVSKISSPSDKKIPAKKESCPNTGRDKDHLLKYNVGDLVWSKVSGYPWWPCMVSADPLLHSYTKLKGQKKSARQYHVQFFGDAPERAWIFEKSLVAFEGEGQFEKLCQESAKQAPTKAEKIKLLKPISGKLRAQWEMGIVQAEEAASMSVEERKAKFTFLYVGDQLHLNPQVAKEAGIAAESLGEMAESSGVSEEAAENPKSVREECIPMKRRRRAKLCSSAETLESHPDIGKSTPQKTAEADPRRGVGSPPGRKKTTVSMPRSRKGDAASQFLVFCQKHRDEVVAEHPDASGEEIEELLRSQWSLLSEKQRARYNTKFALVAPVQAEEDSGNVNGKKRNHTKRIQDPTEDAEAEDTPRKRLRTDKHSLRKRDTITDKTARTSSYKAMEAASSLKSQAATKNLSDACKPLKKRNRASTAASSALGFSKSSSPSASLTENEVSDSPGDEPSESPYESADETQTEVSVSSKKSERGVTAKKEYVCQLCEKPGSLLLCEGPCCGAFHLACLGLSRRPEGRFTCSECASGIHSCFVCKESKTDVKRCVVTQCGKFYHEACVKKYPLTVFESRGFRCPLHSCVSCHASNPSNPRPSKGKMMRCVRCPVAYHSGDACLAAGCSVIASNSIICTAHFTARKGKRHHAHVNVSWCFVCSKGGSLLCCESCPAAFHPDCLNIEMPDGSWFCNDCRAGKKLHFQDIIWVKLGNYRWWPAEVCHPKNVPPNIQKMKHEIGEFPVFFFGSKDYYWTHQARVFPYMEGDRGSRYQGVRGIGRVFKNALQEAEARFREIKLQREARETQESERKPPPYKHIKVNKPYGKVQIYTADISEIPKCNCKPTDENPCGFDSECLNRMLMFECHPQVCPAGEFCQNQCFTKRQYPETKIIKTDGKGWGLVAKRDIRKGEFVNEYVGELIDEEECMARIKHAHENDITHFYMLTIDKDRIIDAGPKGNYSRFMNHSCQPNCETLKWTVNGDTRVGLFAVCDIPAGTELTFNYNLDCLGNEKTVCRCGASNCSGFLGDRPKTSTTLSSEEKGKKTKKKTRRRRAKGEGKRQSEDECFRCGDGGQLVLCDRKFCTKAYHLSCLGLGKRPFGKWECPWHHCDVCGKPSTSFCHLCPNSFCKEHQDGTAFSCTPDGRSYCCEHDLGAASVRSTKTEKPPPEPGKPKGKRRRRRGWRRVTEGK
T1 sequence (Q96SW2 whole entry, looked up): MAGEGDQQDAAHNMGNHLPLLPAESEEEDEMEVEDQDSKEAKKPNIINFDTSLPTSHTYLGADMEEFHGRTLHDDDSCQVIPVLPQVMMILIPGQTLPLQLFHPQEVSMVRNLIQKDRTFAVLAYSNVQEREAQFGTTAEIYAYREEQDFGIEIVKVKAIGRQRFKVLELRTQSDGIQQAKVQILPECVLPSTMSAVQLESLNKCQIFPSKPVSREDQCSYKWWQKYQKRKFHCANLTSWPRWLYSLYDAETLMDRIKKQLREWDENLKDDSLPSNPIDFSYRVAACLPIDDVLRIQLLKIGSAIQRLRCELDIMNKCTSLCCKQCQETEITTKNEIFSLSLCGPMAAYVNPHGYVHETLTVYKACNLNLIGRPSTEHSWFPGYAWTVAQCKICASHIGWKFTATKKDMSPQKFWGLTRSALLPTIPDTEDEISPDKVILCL

[2] = target: T1, Protein cereblon/Histone-lysine N-methyltransferase NSD2 (Homo sapiens); assay: PROTAC activity at CRBN/NSD2 in human SEM cells assessed as induction of NSD2 degradation at 2 uM measured after 4 to 8 hrs hrs by immunoblot analysis; type: cell-based; settings: time 4-8 hrs
[3] = target: T1, Protein cereblon/Histone-lysine N-methyltransferase NSD2 (Homo sapiens); assay: PROTAC activity at CRBN/NSD2 in human SEM cells assessed as induction of NSD2 degradation at 0.5 to 2 uM measured after 24 hrs by immunoblot analysis; type: cell-based; settings: dose 0.5-2 µM
[4] = target: Protein cereblon/Zinc finger protein Aiolos (Homo sapiens) (UniProt Q96SW2+Q9UKT9); assay: PROTAC activity at CRBN/IKZF3 in human SEM cells assessed as decrease in IKZF3 level at 2 uM measured upto 8 hrs by immunoblot analysis; type: cell-based
Protein cereblon/Zinc finger protein Aiolos (Homo sapiens), sequence (Q96SW2 whole entry, looked up): as above
Protein cereblon/Zinc finger protein Aiolos (Homo sapiens), sequence (Q9UKT9 whole entry, looked up): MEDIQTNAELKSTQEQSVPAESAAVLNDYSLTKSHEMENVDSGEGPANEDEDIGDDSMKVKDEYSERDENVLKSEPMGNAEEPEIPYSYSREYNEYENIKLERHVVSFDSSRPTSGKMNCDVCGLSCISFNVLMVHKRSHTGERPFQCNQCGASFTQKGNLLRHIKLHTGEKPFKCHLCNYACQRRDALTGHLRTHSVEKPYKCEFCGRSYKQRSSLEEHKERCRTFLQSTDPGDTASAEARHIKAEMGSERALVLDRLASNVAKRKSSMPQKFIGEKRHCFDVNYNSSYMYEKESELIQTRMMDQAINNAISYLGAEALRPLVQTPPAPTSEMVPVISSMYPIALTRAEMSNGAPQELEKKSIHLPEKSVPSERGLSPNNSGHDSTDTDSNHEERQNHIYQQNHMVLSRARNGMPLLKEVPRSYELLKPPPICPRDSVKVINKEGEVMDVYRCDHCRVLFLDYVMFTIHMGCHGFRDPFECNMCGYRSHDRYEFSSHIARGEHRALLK

[5] = target: T2, Protein cereblon/Eukaryotic peptide chain release factor GTP-binding subunit ERF3A (Homo sapiens) (UniProt Q96SW2+P15170); assay: PROTAC activity at CRBN/GSPT1 in human VCaP cells assessed as decrease in GSPT1 level at 2 uM measured upto 8 hrs by immunoblot analysis; type: cell-based
T2 sequence (P15170 whole entry, looked up): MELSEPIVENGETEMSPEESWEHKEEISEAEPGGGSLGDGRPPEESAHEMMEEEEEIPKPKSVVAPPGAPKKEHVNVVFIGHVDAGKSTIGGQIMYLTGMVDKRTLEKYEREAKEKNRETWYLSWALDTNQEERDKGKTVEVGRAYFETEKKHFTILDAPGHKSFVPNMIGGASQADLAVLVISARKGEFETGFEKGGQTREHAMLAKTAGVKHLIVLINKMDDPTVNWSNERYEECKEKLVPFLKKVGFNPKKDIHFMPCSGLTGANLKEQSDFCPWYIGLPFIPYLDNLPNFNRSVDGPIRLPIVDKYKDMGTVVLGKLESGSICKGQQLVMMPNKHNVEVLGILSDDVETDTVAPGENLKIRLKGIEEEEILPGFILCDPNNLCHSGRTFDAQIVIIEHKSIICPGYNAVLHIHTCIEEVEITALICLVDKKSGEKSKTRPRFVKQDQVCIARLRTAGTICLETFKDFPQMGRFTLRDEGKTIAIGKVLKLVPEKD
T2 sequence (Q96SW2 whole entry, looked up): as the sequence (Q96SW2 whole entry, looked up) above

[6] = target: T1, Protein cereblon/Histone-lysine N-methyltransferase NSD2 (Homo sapiens); assay: In vivo PROTAC activity at CRBN/NSD2 in SCID mouse xenografted with human 22Rv1 cells assessed as downregulation of NSD2 level at 60 mg/kg, ip for 5 days by Western blot analysis; type: functional, organism-based; settings: CWR22R, time 5.0 day
SEM cells [7] = assay: Downregulation of CD9 gene expression in human SEM cells measured after 14 days by RNA sequencing assay; type: functional, cell-based; settings: time 14.0 day
[8] = target: T2, Protein cereblon/Eukaryotic peptide chain release factor GTP-binding subunit ERF3A (Homo sapiens); assay: PROTAC activity at CRBN/GSPT1 in human RPMI 8402 cells assessed as decrease in GSPT1 level at 2 uM measured after 12 hrs by TMT-labeled quantitative proteomics assay; type: cell-based
[9] = target: T1, Protein cereblon/Histone-lysine N-methyltransferase NSD2 (Homo sapiens); assay: In vivo PROTAC activity at CRBN/NSD2 in SCID mouse xenografted with human SEM cells assessed as downregulation of NSD2 level at 60 mg/kg, iv for 5 days by immunohistochemical analysis; type: functional, organism-based; settings: time 5.0 day
SEM cells [10] = assay: Downregulation of MS4A1 gene expression in human SEM cells measured after 14 days by RNA sequencing assay; type: functional, cell-based; settings: time 14.0 day
[11] = target: T1, Protein cereblon/Histone-lysine N-methyltransferase NSD2 (Homo sapiens); assay: PROTAC activity at CRBN/NSD2 in human VCaP cells assessed as decrease in NSD2 level at 2 uM measured after 6 hrs by TMT-labeled quantitative proteomics assay; type: cell-based
[12] = target: T1, Protein cereblon/Histone-lysine N-methyltransferase NSD2 (Homo sapiens); assay: PROTAC activity at CRBN/NSD2 in human RPMI 8402 cells assessed as induction of NSD2 degradation at 0.5 to 2 uM measured after 24 hrs by immunoblot analysis; type: cell-based; settings: dose 0.5-2 µM
[13] = target: T1, Protein cereblon/Histone-lysine N-methyltransferase NSD2 (Homo sapiens); assay: PROTAC activity at CRBN/NSD2 in human SEM cells assessed as induction of NSD2 degradation at 2 uM incubated for 12 hrs by immunoblot analysis; type: cell-based
[14] = target: T1, Protein cereblon/Histone-lysine N-methyltransferase NSD2 (Homo sapiens); assay: PROTAC activity at CRBN/NSD2 in human RPMI 8402 cells assessed as induction of NSD2 degradation at 2 uM pretreated with MLN4924 for 2 hrs followed by compound addition and measured after 6 to 12 hrs by Western blot analysis; type: cell-based; settings: time 6-12 hrs
[15] = target: T1, Protein cereblon/Histone-lysine N-methyltransferase NSD2 (Homo sapiens); assay: PROTAC activity at CRBN/NSD2 in human SEM cells assessed as induction of NSD2 degradation at 2 uM measured after 12 to 24 hrs by immunoblot analysis; type: cell-based; settings: time 12-24 hrs
[16] = target: T1, Protein cereblon/Histone-lysine N-methyltransferase NSD2 (Homo sapiens); assay: PROTAC activity at CRBN/NSD2 in human SEM cells assessed as induction of NSD2 degradation at 2 uM preincubated for 12 hrs followed by compound washout and measured after 48 hrs by immunoblot analysis; type: cell-based
[17] = target: T1, Protein cereblon/Histone-lysine N-methyltransferase NSD2 (Homo sapiens); assay: PROTAC activity at CRBN/NSD2 in human RPMI 8402 cells assessed as decrease in NSD2 level at 2 uM measured after 12 hrs by TMT-labeled quantitative proteomics assay; type: cell-based
SEM cells [18] = assay: Downregulation of CD38 gene expression in human SEM cells measured after 14 days by RNA sequencing assay; type: functional, cell-based; settings: time 14.0 day
[19] = target: Protein cereblon/Histone-lysine N-methyltransferase NSD3 (Homo sapiens) (UniProt Q9BZ95+Q96SW2); assay: PROTAC activity at CRBN/NSD3 in human SEM cells assessed as decrease in NSD3 level at 2 uM measured upto 8 hrs by immunoblot analysis; type: cell-based
Protein cereblon/Histone-lysine N-methyltransferase NSD3 (Homo sapiens), sequence (Q96SW2 whole entry, looked up): as above
Protein cereblon/Histone-lysine N-methyltransferase NSD3 (Homo sapiens), sequence (Q9BZ95 whole entry, looked up): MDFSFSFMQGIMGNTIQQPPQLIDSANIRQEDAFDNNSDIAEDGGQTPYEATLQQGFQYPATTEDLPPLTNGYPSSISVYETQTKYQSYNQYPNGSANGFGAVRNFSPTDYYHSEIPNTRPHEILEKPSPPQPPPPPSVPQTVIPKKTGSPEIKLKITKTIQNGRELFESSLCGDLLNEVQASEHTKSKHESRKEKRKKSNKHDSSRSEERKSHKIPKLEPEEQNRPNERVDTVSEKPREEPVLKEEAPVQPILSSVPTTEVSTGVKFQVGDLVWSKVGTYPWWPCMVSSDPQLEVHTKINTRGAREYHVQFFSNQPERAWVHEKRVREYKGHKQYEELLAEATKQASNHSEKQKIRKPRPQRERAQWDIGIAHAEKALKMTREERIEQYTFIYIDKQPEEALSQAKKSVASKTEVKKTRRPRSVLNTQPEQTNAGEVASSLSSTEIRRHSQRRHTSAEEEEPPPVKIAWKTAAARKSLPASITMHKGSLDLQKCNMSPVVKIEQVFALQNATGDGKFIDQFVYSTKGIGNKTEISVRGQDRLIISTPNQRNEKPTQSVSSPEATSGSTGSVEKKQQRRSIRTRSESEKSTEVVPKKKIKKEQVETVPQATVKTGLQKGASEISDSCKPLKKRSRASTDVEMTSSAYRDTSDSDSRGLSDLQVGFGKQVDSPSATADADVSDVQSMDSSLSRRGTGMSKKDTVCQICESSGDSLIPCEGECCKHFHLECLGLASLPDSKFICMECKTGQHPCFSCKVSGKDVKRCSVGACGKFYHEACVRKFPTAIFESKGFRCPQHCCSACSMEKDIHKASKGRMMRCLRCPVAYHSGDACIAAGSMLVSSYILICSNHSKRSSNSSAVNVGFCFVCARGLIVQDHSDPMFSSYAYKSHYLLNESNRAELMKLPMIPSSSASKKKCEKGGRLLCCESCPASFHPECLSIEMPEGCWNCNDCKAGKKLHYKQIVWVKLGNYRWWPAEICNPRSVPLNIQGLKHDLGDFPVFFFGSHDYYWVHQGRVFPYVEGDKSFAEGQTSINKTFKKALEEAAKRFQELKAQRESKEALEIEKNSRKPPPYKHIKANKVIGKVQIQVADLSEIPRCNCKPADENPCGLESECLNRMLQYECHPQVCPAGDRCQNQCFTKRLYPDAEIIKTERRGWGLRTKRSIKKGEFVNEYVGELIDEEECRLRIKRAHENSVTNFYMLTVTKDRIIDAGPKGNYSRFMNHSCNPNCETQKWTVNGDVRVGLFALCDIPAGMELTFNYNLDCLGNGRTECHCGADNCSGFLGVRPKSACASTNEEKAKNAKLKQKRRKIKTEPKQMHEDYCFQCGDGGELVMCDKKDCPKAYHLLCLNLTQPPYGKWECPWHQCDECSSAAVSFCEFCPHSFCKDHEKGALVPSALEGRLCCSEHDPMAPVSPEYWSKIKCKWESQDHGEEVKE

SEM cells [20] = assay: Downregulation of TNFAIP3 gene expression in human SEM cells measured after 14 days by RNA sequencing assay; type: functional, cell-based; settings: time 14.0 day
[21] = target: T1, Protein cereblon/Histone-lysine N-methyltransferase NSD2 (Homo sapiens); assay: PROTAC activity at CRBN/NSD2 in human SEM cells assessed as downregulation of H3K36Me2 level at 2 uM measured after 8 hrs hrs by immunoblot analysis; type: cell-based
[22] = target: T1, Protein cereblon/Histone-lysine N-methyltransferase NSD2 (Homo sapiens); assay: PROTAC activity at CRBN/NSD2 in human RPMI 8402 cells assessed as induction of NSD2 degradation at 2 uM pretreated with bortezomib for 2 hrs followed by compound addition and measured after 6 to 12 hrs by Western blot analysis; type: cell-based; settings: time 6-12 hrs
[23] = target: T1, Protein cereblon/Histone-lysine N-methyltransferase NSD2 (Homo sapiens); assay: In vivo PROTAC activity at CRBN/NSD2 in SCID mouse xenografted with human 22Rv1 cells assessed as downregulation of NSD2 level at 60 mg/kg, iv for 5 days by Western blot analysis; type: functional, organism-based; settings: CWR22R, time 5.0 day
[24] = target: T1, Protein cereblon/Histone-lysine N-methyltransferase NSD2 (Homo sapiens); assay: In vivo PROTAC activity at CRBN/NSD2 in SCID mouse xenografted with human SEM cells assessed as downregulation of NSD2 level at 60 mg/kg, ip for 5 days by immunohistochemical analysis; type: functional, organism-based; settings: time 5.0 day
[25] = target: T2, Protein cereblon/Eukaryotic peptide chain release factor GTP-binding subunit ERF3A (Homo sapiens); assay: PROTAC activity at CRBN/GSPT1 in human SEM cells assessed as decrease in GSPT1 level at 2 uM measured after 12 hrs by immunoblot analysis; type: cell-based
RPMI 8402 = assay: Cytotoxicity against human RPMI 8402 cells assessed as inhibition of cell growth at 2 uM measured after 9 days by Celltiter-glo assay; type: functional, cell-based; settings: time 9.0 day
[26] = target: T1, Protein cereblon/Histone-lysine N-methyltransferase NSD2 (Homo sapiens); assay: In vivo PROTAC activity at CRBN/NSD2 in SCID mouse xenografted with human SEM cells assessed as downregulation of NSD2 level at 60 mg/kg, ip for 5 days by Western blot analysis; type: functional, organism-based; settings: time 5.0 day
[27] = target: T1, Protein cereblon/Histone-lysine N-methyltransferase NSD2 (Homo sapiens); assay: In vivo PROTAC activity at CRBN/NSD2 in SCID mouse xenografted with human 22Rv1 cells assessed as downregulation of NSD2 level at 60 mg/kg, ip for 5 days by immunohistochemical analysis; type: functional, organism-based; settings: CWR22R, time 5.0 day
SEM cells [28] = assay: Cytotoxicity against human SEM cells assessed as inhibition of cell growth at 2 uM measured after 9 days by Celltiter-glo assay; type: functional, cell-based; settings: time 9.0 day
[29] = target: T1, Protein cereblon/Histone-lysine N-methyltransferase NSD2 (Homo sapiens); assay: PROTAC activity at CRBN/NSD2 in human RPMI 8402 cells assessed as induction of NSD2 degradation at 2 uM pretreated with UNC6934 for 2 hrs followed by compound addition and measured after 6 to 12 hrs by Western blot analysis; type: cell-based; settings: time 6-12 hrs
[30] = target: Cereblon/Casein kinase I alpha (Homo sapiens) (UniProt P48729+Q96SW2); assay: PROTAC activity at CRBN/CK1alpha in human SEM cells assessed as decrease in CK1alpha level at 2 uM measured upto 8 hrs by immunoblot analysis; type: cell-based
Cereblon/Casein kinase I alpha (Homo sapiens), sequence (P48729 2-337 limits assumed): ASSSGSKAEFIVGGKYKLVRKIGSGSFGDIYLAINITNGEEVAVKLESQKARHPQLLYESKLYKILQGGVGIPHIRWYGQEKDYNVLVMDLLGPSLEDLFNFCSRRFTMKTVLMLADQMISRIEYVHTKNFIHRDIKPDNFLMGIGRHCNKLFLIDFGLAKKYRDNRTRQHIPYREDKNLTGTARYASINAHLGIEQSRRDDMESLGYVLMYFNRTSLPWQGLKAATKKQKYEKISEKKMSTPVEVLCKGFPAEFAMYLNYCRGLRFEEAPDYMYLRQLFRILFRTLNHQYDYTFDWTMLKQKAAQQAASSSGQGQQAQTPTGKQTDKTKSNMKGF
Cereblon/Casein kinase I alpha (Homo sapiens), sequence (Q96SW2 whole entry partner): as the sequence (Q96SW2 whole entry, looked up) above

O=C1CCC(N2C(=O)c3ccc(N4CCC(NC(=O)c5ccc(NC(=O)c6ccc(CN(C(=O)c7ccc8c(c7)OCC(=O)N8)C7CC7)cc6)cc5)CC4)cc3C2=O)C(=O)N1 (stereo unspecified)
Activity [1]: Active
Activity [2]: Active
Activity [3]: Active
Activity [4]: inactive
Activity [5]: inactive
Activity [6]: Active
Activity (SEM cells [7]): Active
Activity [8]: Active
Activity [9]: Active
Activity (SEM cells [10]): Active
Activity [11]: Active
Activity [12]: Active
Activity [13]: Active
Activity [14]: inactive
Activity [15]: Active
Activity [16]: inactive
Activity [17]: Active
Activity (SEM cells [18]): Active
Activity [19]: inactive
Activity (SEM cells [20]): Active
Activity [21]: Active
Activity [22]: inactive
Activity [23]: Active
Activity [24]: Active
Activity [25]: Active
Activity (RPMI 8402): Active
Activity [26]: Active
Activity [27]: Active
Activity (SEM cells [28]): Active
Activity [29]: inactive
Activity [30]: inactive
